Source: patent publication US7563621B2, “Absorbing organic reagents into diagnostic test devices by formation of amine salt complexes” (Siemens Healhcare Diagnostics Inc, priority 2003, dated 2009)
Several values for one entry are separate records, joined by “and”; a condition that tells them apart may be missing. Equal values may be shown once. Where a name gives a salt, the structure may show the parent alone.

Tests used:
[1] = Butanol/water partitioning of dye salts (Example 2); conditions: for Absorbance of Base in Butanol: butanol layer; for Partition Ratio of Butanol Absorbance to Water Absorbance: corrected by intensity factor; for Absorbance of Base in Water: water layer
Experimental: The five dye solutions were then treated with 1 equivalent of each base listed in Tables 1-5 (i.e., sodium hydroxide, TRIS, and triethylamine) to form salt solutions (i.e., sodium salt solutions, TRIS salt solutions, and triethylamine salt solutions respectively).
A 50 μL portion of each salt solution was then mixed with 950 μL water and 1000 μL butanol. […] Where necessary to deal with lingering interface phases, the samples were centrifuged.
Tests were then performed on the respective salt solutions to determine whether the salts of the respective dyes dissolved preferentially in butanol (a more lipophilic solvent) or water (a less lipophilic solvent). […] Spectroscopy versus the butanol blank or the water blank was done as 50 μL upper (butanol) or lower (aqueous) phase plus 950 μL corresponding solvent. All absorbances were blanked on solvent in a quartz cuvette and were baseline corrected at an absorbance of 900 nm before subsequent calculations to correct for cuvette placement, dust, etc. All absorbances were then measured at the wavelengths noted below.
Before determining the butanol to water absorbance levels, the absorbance of the solute in butanol was corrected for solvent dependent shifts in wavelength maximum and intensity based on the reference spectra of known gravimetric quantities of the dye salts in butanol and water. For such cases, the partition ratio of butanol absorbance to water absorbance was calculated using the following formula: Partition Ratio=Sample Absorbance in Butanol×Intensity Factor/Sample Absorbance in Water where the intensity factor was calculated using the following formula: Intensity Factor=Reference Sample Absorbance at λmax in water/Reference Sample Absorbance at λmax in butanol The intensity factor adjusts for those cases where the same concentration of dye in the two different solvents produced two different absorbances.

Lambda Light Chain = assay: Automated protein assay with pyrogallol red salts, 74 μM (Example 6); conditions: Series #1 and #2; for Percent Detection as Percentage of HSA Detection: Lambda Light Chain; for average net absorbance at 600 nm after subtracting PBS sample reaction result: Lambda Light Chain 25 mg/dL, 10 minutes, 37° C, 900 nm baseline subtracted
Experimental: (§1) The dilutor was programmed for reactions of 180 μL reagent+40 μL sample. […] The samples were phosphate buffered saline (blank), human serum albumin (HSA) 25 mg/dL, and other proteins (i.e., human IgG, […], and Lambda Light Chain) at 25 mg/dL. Absorbance data were collected on a Biotek, Powerwave X Microplate Absorbance reader using BioTek “KC Jr” software to determine the relative detection of the different proteins (i.e., HSA, human IgG, […], and Lambda Light Chain) using salts of pyrogallol red. Two sets of replicates of the different proteins were run. […] The protein response was determined by subtracting the phosphate buffered saline sample reaction result from the protein reaction result. […] The results for protein equivalence of the non-albumin proteins were expressed as a percentage of the protein colorimetric response to HSA as shown in Table 11 below.

[2] = Butanol/water partitioning of pyrogallol red dye salts (Example 3); format: physicochemical; conditions: 276 nm; for Absorbance of Dye Salt in Butanol: butanol layer; for Absorbance of Dye Salt in Water: water layer
Experimental: Extractions were then performed in Mixxor extractors.

[3] = molecular target: human serum albumin (HSA) (Homo sapiens, UniProt P02768); assay: Automated protein assay with pyrogallol red salts, 74 μM (Example 6); conditions: HSA 25 mg/dL; 10 minutes, 37° C; 900 nm baseline subtracted; Series #1 and #2
Experimental: The dilutor was programmed for reactions of 180 μL reagent+40 μL sample. […] The samples were phosphate buffered saline (blank), human serum albumin (HSA) 25 mg/dL, and other proteins (i.e., human IgG, […], and Lambda Light Chain) at 25 mg/dL. Absorbance data were collected on a Biotek, Powerwave X Microplate Absorbance reader using BioTek “KC Jr” software to determine the relative detection of the different proteins (i.e., HSA, human IgG, […], and Lambda Light Chain) using salts of pyrogallol red. Two sets of replicates of the different proteins were run. […] The protein response was determined by subtracting the phosphate buffered saline sample reaction result from the protein reaction result.

Tamm-Horsfall = Tamm-Horsfall (Homo sapiens, UniProt P07911); assay: as above; conditions: Series #1 and #2; for average net absorbance at 600 nm after subtracting PBS sample reaction result: Tamm-Horsfall 25 mg/dL, 10 minutes, 37° C, 900 nm baseline subtracted; for Percent Detection as Percentage of HSA Detection: Tamm-Horsfall
Experimental: as §1

human IgG = assay: as above; conditions: Series #1 and #2; for average net absorbance at 600 nm after subtracting PBS sample reaction result: IgG 25 mg/dL, 10 minutes, 37° C, 900 nm baseline subtracted; for Percent Detection as Percentage of HSA Detection: IgG
Experimental: as §1

[4] = 8-anilino-1-sulfonic acid salts
[5] = 8-anilino-1-sulfonic acid salts, λmax 269 nm
[6] = 8-anilino-1-sulfonic acid salts, reference absorbance in water / in butanol
[7] = 8-anilino-1-sulfonic acid salts, λmax 265 nm
[8] = rosolic acid salts, aqueous reference saturated with butanol
[9] = rosolic acid salts, λmax 562 nm
[10] = rosolic acid salts, λmax 547 nm, four times less dilute solution measured, absorbance divided by four
[11] = erythrosin salts, reference absorbance in water / in butanol
[12] = bromocresol green salts, λmax 630 nm
[13] = bromocresol green salts, reference absorbance in water / in butanol
[14] = bromocresol green salts, λmax 615 nm

human serum albumin (HSA), sequence (P02768 25-609): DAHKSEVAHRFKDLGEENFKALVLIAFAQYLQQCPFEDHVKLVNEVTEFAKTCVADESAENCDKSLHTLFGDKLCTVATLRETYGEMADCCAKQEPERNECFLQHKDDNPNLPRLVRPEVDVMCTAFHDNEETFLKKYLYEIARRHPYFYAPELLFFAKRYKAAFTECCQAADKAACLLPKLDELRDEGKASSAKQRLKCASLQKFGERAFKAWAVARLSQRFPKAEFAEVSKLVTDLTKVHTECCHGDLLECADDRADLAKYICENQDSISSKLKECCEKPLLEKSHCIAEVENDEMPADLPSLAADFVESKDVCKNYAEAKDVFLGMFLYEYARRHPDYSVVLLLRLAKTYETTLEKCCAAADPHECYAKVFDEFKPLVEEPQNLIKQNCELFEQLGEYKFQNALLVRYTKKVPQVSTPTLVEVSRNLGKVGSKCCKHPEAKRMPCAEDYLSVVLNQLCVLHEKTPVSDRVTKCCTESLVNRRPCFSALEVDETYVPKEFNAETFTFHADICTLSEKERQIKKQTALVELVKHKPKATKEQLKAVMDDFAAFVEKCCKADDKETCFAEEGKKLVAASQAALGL

Molecule: O=S(=O)(O)c1cccc2cccc(Nc3ccccc3)c12 [8-Anilino-1-Sulfonic Acid, Sodium Hydroxide] [reference compound]
- Raw Ratio of Butanol Absorbance to Water Absorbance [1, 4]: 1.9
- Absorbance of Base in Butanol [1, 5]: 0.121
- Partition Ratio of Butanol Absorbance to Water Absorbance [1, 4]: 1.8
- Intensity Factor (IF) [1, 6]: 0.98
- Absorbance of Base in Water [1, 7]: 0.065

Molecule: pyrogallol red [Triethylamine Pyrogallol Red Salt]
- Percent Detection as Percentage of HSA Detection (Lambda Light Chain; listed as triethylammonium): 3%

Molecule: O=C1C=CC(=C(c2ccc(O)cc2)c2ccc(O)cc2)C=C1 [Rosolic Acid, Triethylamine, rosolic acid]
- Raw Ratio of Butanol Absorbance to Water Absorbance ([1]; rosolic acid salts): 12
- Intensity Factor (IF) [1, 8]: 0.94
- Absorbance of Base in Butanol [1, 9]: 0.077
- Partition Ratio of Butanol Absorbance to Water Absorbance ([1]; rosolic acid salts): 11
- Absorbance of Base in Water [1, 10]: 0.006

Molecule: O=C(O)c1ccccc1-c1c2cc(I)c(=O)c(I)c-2oc2c(I)c(O)c(I)cc12 [Erythrosin, Triethylamine, erythrosin B]
- Raw Ratio of Butanol Absorbance to Water Absorbance ([1]; erythrosin salts): 0.40
- Absorbance of Base in Butanol ([1]; erythrosin salts, λmax 536 nm): 0.240
- Partition Ratio of Butanol Absorbance to Water Absorbance ([1]; erythrosin salts): 0.42
- Intensity Factor (IF) [1, 11]: 1.04
- Absorbance of Base in Water ([1]; erythrosin salts, λmax 528 nm): 0.596

Molecule: O=c1ccc2c(-c3ccccc3S(=O)(=O)O)c3ccc(O)c(O)c3oc-2c1O [TRIS Pyrogallol Red Salt, pyrogallol red]
- Ratio of Butanol Absorbance to Water Absorbance ([2]; TRIS): 0.13
- Absorbance of Dye Salt in Butanol ([2]; TRIS): 0.041
- Absorbance of Dye Salt in Water ([2]; TRIS): 0.326
- average net absorbance at 600 nm after subtracting PBS sample reaction result [3]: 0.0750
- average net absorbance at 600 nm after subtracting PBS sample reaction result (Lambda Light Chain): 0.0030
- Percent Detection as Percentage of HSA Detection (Lambda Light Chain): 4%
- average net absorbance at 600 nm after subtracting PBS sample reaction result (Tamm-Horsfall): 0.0175
- Percent Detection as Percentage of HSA Detection (Tamm-Horsfall): 23%
- average net absorbance at 600 nm after subtracting PBS sample reaction result (human IgG): 0.0410
- Percent Detection as Percentage of HSA Detection (human IgG): 55%

Molecule: O=C1C=CC(=C(c2ccc(O)cc2)c2ccc(O)cc2)C=C1 [Rosolic Acid, Sodium Hydroxide, rosolic acid, reference compound]
- Raw Ratio of Butanol Absorbance to Water Absorbance ([1]; rosolic acid salts): 1.7
- Intensity Factor (IF) [1, 8]: 0.69
- Absorbance of Base in Butanol [1, 9]: 0.147
- Partition Ratio of Butanol Absorbance to Water Absorbance ([1]; rosolic acid salts): 1.2
- Absorbance of Base in Water [1, 10]: 0.085

Molecule: O=c1ccc2c(-c3ccccc3S(=O)(=O)O)c3ccc(O)c(O)c3oc-2c1O [Triethylamine Pyrogallol Red Salt, pyrogallol red]
- Ratio of Butanol Absorbance to Water Absorbance ([2]; Triethylamine): 0.23
- Absorbance of Dye Salt in Butanol ([2]; Triethylamine): 0.063
- Absorbance of Dye Salt in Water ([2]; Triethylamine): 0.274
- average net absorbance at 600 nm after subtracting PBS sample reaction result [3]: 0.0559 and 0.0600
- Percent Detection as Percentage of HSA Detection (Lambda Light Chain): 3% and 9%
- average net absorbance at 600 nm after subtracting PBS sample reaction result (Tamm-Horsfall): 0.0135 and 0.0109
- Percent Detection as Percentage of HSA Detection (Tamm-Horsfall): 22% and 19%
- average net absorbance at 600 nm after subtracting PBS sample reaction result (human IgG): 0.0285 and 0.0284
- Percent Detection as Percentage of HSA Detection (human IgG): 48% and 51%

Molecule: pyrogallol red [Glucamine Pyrogallol Red Salt]
- Percent Detection as Percentage of HSA Detection (Lambda Light Chain): 14%

Molecule: CC1=C(Br)C(=O)C(Br)=C/C1=C(/c1ccccc1S(=O)(=O)O)c1cc(Br)c(O)c(Br)c1C [Bromocresol Green, Sodium Hydroxide, bromocresol green, reference compound]
- Raw Ratio of Butanol Absorbance to Water Absorbance ([1]; bromocresol green salts): 1.8
- Absorbance of Base in Butanol [1, 12]: 0.315
- Partition Ratio of Butanol Absorbance to Water Absorbance ([1]; bromocresol green salts): 1.9
- Intensity Factor (IF) [1, 13]: 1.03
- Absorbance of Base in Water [1, 14]: 0.175

Molecule: O=S(=O)(O)c1cccc2cccc(Nc3ccccc3)c12 [8-Anilino-1-Sulfonic Acid, Triethylamine, 8-anilino-1-sulfonic acid]
- Raw Ratio of Butanol Absorbance to Water Absorbance [1, 4]: 3.4
- Absorbance of Base in Butanol [1, 5]: 0.156
- Partition Ratio of Butanol Absorbance to Water Absorbance [1, 4]: 3.5
- Intensity Factor (IF) [1, 6]: 1.01
- Absorbance of Base in Water [1, 7]: 0.045

Molecule: O=C(O)c1ccccc1-c1c2cc(I)c(=O)c(I)c-2oc2c(I)c(O)c(I)cc12 [Erythrosin, TRIS, erythrosin B]
- Raw Ratio of Butanol Absorbance to Water Absorbance ([1]; erythrosin salts): 0.31
- Absorbance of Base in Butanol ([1]; erythrosin salts, λmax 536 nm): 0.196
- Partition Ratio of Butanol Absorbance to Water Absorbance ([1]; erythrosin salts): 0.28
- Intensity Factor (IF) [1, 11]: 0.90
- Absorbance of Base in Water ([1]; erythrosin salts, λmax 528 nm): 0.631

Molecule: CC1=C(Br)C(=O)C(Br)=C/C1=C(/c1ccccc1S(=O)(=O)O)c1cc(Br)c(O)c(Br)c1C [Bromocresol Green, TRIS, bromocresol green]
- Raw Ratio of Butanol Absorbance to Water Absorbance ([1]; bromocresol green salts): 1.7
- Absorbance of Base in Butanol [1, 12]: 0.250
- Partition Ratio of Butanol Absorbance to Water Absorbance ([1]; bromocresol green salts): 4.2
- Intensity Factor (IF) [1, 13]: 2.47
- Absorbance of Base in Water [1, 14]: 0.146

Molecule: O=c1ccc2c(-c3ccccc3S(=O)(=O)O)c3ccc(O)c(O)c3oc-2c1O [Triethanolamine Salt, pyrogallol red]
- Ratio of Butanol Absorbance to Water Absorbance ([2]; Triethanolamine): 0.15
- Absorbance of Dye Salt in Butanol ([2]; Triethanolamine): 0.044
- Absorbance of Dye Salt in Water ([2]; Triethanolamine): 0.296

Molecule: O=C(O)c1ccccc1-c1c2cc(I)c(=O)c(I)c-2oc2c(I)c(O)c(I)cc12 [Erythrosin, Sodium Hydroxide, erythrosin B, reference compound]
- Raw Ratio of Butanol Absorbance to Water Absorbance ([1]; erythrosin salts): 0.41
- Absorbance of Base in Butanol ([1]; erythrosin salts, λmax 536 nm): 0.237
- Partition Ratio of Butanol Absorbance to Water Absorbance ([1]; erythrosin salts): 0.38
- Intensity Factor (IF) [1, 11]: 0.93
- Absorbance of Base in Water ([1]; erythrosin salts, λmax 528 nm): 0.574

Molecule: CC1=C(Br)C(=O)C(Br)=C/C1=C(/c1ccccc1S(=O)(=O)O)c1cc(Br)c(O)c(Br)c1C [Bromocresol Green, Triethylamine, bromocresol green]
- Raw Ratio of Butanol Absorbance to Water Absorbance ([1]; bromocresol green salts): 2.4
- Absorbance of Base in Butanol [1, 12]: 0.237
- Partition Ratio of Butanol Absorbance to Water Absorbance ([1]; bromocresol green salts): 6.3
- Intensity Factor (IF) [1, 13]: 2.58
- Absorbance of Base in Water [1, 14]: 0.097

Molecule: O=S(=O)(O)c1cccc2cccc(Nc3ccccc3)c12 [8-Anilino-1-Sulfonic Acid, TRIS, 8-anilino-1-sulfonic acid]
- Raw Ratio of Butanol Absorbance to Water Absorbance [1, 4]: 2.6
- Absorbance of Base in Butanol [1, 5]: 0.129
- Partition Ratio of Butanol Absorbance to Water Absorbance [1, 4]: 2.3
- Intensity Factor (IF) [1, 6]: 0.89
- Absorbance of Base in Water [1, 7]: 0.050

Molecule: O=C1C=CC(=C(c2ccc(O)cc2)c2ccc(O)cc2)C=C1 [Rosolic Acid, TRIS, rosolic acid]
- Raw Ratio of Butanol Absorbance to Water Absorbance ([1]; rosolic acid salts): 17
- Intensity Factor (IF) [1, 8]: 1.07
- Absorbance of Base in Butanol [1, 9]: 0.055
- Partition Ratio of Butanol Absorbance to Water Absorbance ([1]; rosolic acid salts): 18
- Absorbance of Base in Water [1, 10]: 0.003

Molecule: O=c1ccc2c(-c3ccccc3S(=O)(=O)O)c3ccc(O)c(O)c3oc-2c1O [Glucamine Pyrogallol Red Salt, pyrogallol red]
- Ratio of Butanol Absorbance to Water Absorbance ([2]; Glucamine): 0.09
- Absorbance of Dye Salt in Butanol ([2]; Glucamine): 0.030
- Absorbance of Dye Salt in Water ([2]; Glucamine): 0.328
- average net absorbance at 600 nm after subtracting PBS sample reaction result [3]: 0.0618
- average net absorbance at 600 nm after subtracting PBS sample reaction result (Lambda Light Chain): 0.0088
- Percent Detection as Percentage of HSA Detection (Lambda Light Chain): 14%
- average net absorbance at 600 nm after subtracting PBS sample reaction result (Tamm-Horsfall): 0.0123
- Percent Detection as Percentage of HSA Detection (Tamm-Horsfall): 20%
- average net absorbance at 600 nm after subtracting PBS sample reaction result (human IgG): 0.0318
- Percent Detection as Percentage of HSA Detection (human IgG): 51%
